According to patent US8410153B2, “Naphthalene isoxazoline invertebrate pest control agents” (E.I. du Pont de Nemours and Company, priority 2007, dated 2013):

What was measured:
Type in all cases: in vivo
[1] = tested on: diamondback moth (Plutella xylostella); assay: Test A: control of diamondback moth on radish plant, foliar spray; settings: sprayed at 50 ppm, held 6 days
In short: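 Radish plants 12–14 days old, pre-infested with about 50 neonate larvae, sprayed at 50 ppm in 10% acetone/water with 300 ppm X-77 surfactant; three replicates. After 6 days at 25° C and 70% RH, feeding damage was scored visually and mortality counted.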

[2] = tested on: fall armyworm (Spodoptera frugiperda); assay: Test B: control of fall armyworm on corn (maize) plant, foliar spray; settings: sprayed at 50 ppm
In short: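 4-5-day-old corn plants pre-infested with 10-15 1-day-old larvae on insect diet, then sprayed with compound at 50 ppm in 10% acetone/90% water with 300 ppm surfactant, three replicates. Held 6 days at 25° C, 70% RH; feeding damage assessed visually and mortality rated.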

[3] = tested on: western flower thrips (Frankliniella occidentalis); assay: Test E: control of western flower thrips on Soleil bean plant, contact and/or systemic; settings: held 6 days
In short: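 5–7-day-old Soleil bean plants were sprayed at 250 or 50 ppm in 10% acetone/90% water with 300 ppm X-77 surfactant, three replicates. After drying 1 h, 22–27 adult thrips were added per unit. Mortality and plant damage were rated after 6 days at 25 °C and 45–55% RH.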

Measured: levels of control efficacy (20% or less feeding damage or 80% or more mortality)

CC(C)CNC(=O)CNC(=O)c1ccc(C2=NOC(c3cc(C(F)(F)F)cc(C(F)(F)F)c3)(C(F)(F)F)C2)c2ccccc12 (centres unmarked) [Compound 102]
very good to excellent: [1] | [2] | [3]; sprayed at 50 ppm

CSCCNC(=O)c1ccc(C2=NOC(c3cc(F)cc(C(F)(F)F)c3)(C(F)(F)F)C2)c2ccccc12 (racemic) [Compound 132]
very good to excellent: [1] | [2] | [3]; sprayed at 50 ppm | [3]; sprayed at 250 ppm

CCNC(=O)C(C)NC(=O)c1ccc(C2=NOC(c3cc(C(F)(F)F)cc(C(F)(F)F)c3)(C(F)(F)F)C2)c2ccccc12 (mixture of isomers) [Compound 96]
very good to excellent: [1] | [2] | [3]; sprayed at 250 ppm

CNC(=O)C(C)NC(=O)c1ccc(C2=NOC(c3cc(C(F)(F)F)cc(C(F)(F)F)c3)(C(F)(F)F)C2)c2ccccc12 (centres unmarked) [Compound 86]
very good to excellent: [1] | [2] | [3]; sprayed at 50 ppm | [3]; sprayed at 250 ppm

CCNC(=O)C(C)NC(=O)c1ccc(C2=NOC(c3cc(F)cc(C(F)(F)F)c3)(C(F)(F)F)C2)c2ccccc12 (mixture of isomers) [Compound 137]
very good to excellent: [1] | [2] | [3]; sprayed at 50 ppm

CNC(=O)C(C)NC(=O)c1ccc(C2=NOC(c3cc(Br)cc(C(F)(F)F)c3)(C(F)(F)F)C2)c2ccccc12 (mixture of isomers) [Compound 141]
very good to excellent: [1] | [2] | [3]; sprayed at 50 ppm

CNC(=O)CNC(=O)c1ccc(C2=NOC(c3cc(Br)cc(C(F)(F)F)c3)(C(F)(F)F)C2)c2ccccc12 (racemic) [Compound 143]
very good to excellent: [1] | [2] | [3]; sprayed at 50 ppm

CC(NC(=O)c1ccc(C2=NOC(c3cc(Cl)cc(Cl)c3)(C(F)(F)F)C2)c2ccccc12)C(=O)NC(C)C(F)(F)F (mixture of isomers) [Compound 123]
very good to excellent: [1] | [2] | [3]; sprayed at 50 ppm | [3]; sprayed at 250 ppm

CCNC(=O)CNC(=O)c1ccc(C2=NOC(c3cc(C(F)(F)F)cc(C(F)(F)F)c3)(C(F)(F)F)C2)c2ccccc12 (centres unmarked) [Compound 100]
very good to excellent: [1] | [2] | [3]; sprayed at 50 ppm

CC(CO)NC(=O)c1ccc(C2=NOC(c3cc(Cl)cc(Cl)c3)(C(F)(F)F)C2)c2ccccc12 (mixture of isomers) [Compound 31]
very good to excellent: [1] | [2] | [3]; sprayed at 50 ppm | [3]; sprayed at 250 ppm

CSCCNC(=O)c1ccc(C2=NOC(c3cccc(C(F)(F)F)c3)(C(F)(F)F)C2)c2ccccc12 (racemic) [Compound 34]
very good to excellent: [1] | [2] | [3]; sprayed at 50 ppm | [3]; sprayed at 250 ppm

CC(NC(=O)CNC(=O)c1ccc(C2=NOC(c3cc(Cl)cc(Cl)c3)(C(F)(F)F)C2)c2ccccc12)C(F)(F)F (mixture of isomers) [Compound 122]
very good to excellent: [1] | [2] | [3]; sprayed at 50 ppm | [3]; sprayed at 250 ppm

CCCNC(=O)CNC(=O)c1ccc(C2=NOC(c3cc(C(F)(F)F)cc(C(F)(F)F)c3)(C(F)(F)F)C2)c2ccccc12 (centres unmarked) [Compound 101]
very good to excellent: [1] | [2] | [3]; sprayed at 50 ppm

CC(C)CNC(=O)CNC(=O)c1ccc(C2=NOC(c3cc(Cl)cc(C(F)(F)F)c3)(C(F)(F)F)C2)c2ccccc12 (centres unmarked) [Compound 118]
very good to excellent: [1] | [2] | [3]; sprayed at 250 ppm

CC(C)NC(=O)CNC(=O)c1ccc(C2=NOC(c3cc(Cl)cc(Cl)c3)(C(F)(F)F)C2)c2ccccc12 (centres unmarked) [Compound 5]
very good to excellent: [1] | [2] | [3]; sprayed at 50 ppm | [3]; sprayed at 250 ppm

COCCNC(=O)c1ccc(C2=NOC(c3cc(Cl)cc(Cl)c3)(C(F)(F)F)C2)c2ccccc12 (centres unmarked) [Compound 28]
very good to excellent: [1] | [2] | [3]; sprayed at 50 ppm | [3]; sprayed at 250 ppm

CSCC(C)(C)NC(=O)c1ccc(C2=NOC(c3cc(Cl)cc(Cl)c3)(C(F)(F)F)C2)c2ccccc12 (centres unmarked) [Compound 27]
very good to excellent: [1] | [2] | [3]; sprayed at 50 ppm | [3]; sprayed at 250 ppm

CCNC(=O)CNC(=O)c1ccc(C2=NOC(c3cc(Br)cc(C(F)(F)F)c3)(C(F)(F)F)C2)c2ccccc12 (racemic) [Compound 144]
very good to excellent: [1] | [2] | [3]; sprayed at 50 ppm

CS(=O)(=O)CCNC(=O)c1ccc(C2=NOC(c3cc(Cl)cc(C(F)(F)F)c3)(C(F)(F)F)C2)c2ccccc12 (centres unmarked) [Compound 66]
very good to excellent: [1] | [2] | [3]; sprayed at 50 ppm | [3]; sprayed at 250 ppm

CSCCC(C)NC(=O)c1ccc(C2=NOC(c3cc(Cl)cc(Cl)c3)(C(F)(F)F)C2)c2ccccc12 (centres unmarked) [Compound 26]
very good to excellent: [1] | [2] | [3]; sprayed at 50 ppm | [3]; sprayed at 250 ppm
